# Laboratory results from article PMC3914206.
# Legend:
# Format in all cases: binding
# panel of 442 kinases [1] = biological target: T1, panel of 442 kinases (Homo sapiens, UniProt P00519, Q252H); conditions: Compound Concentration 10 µM
# T1 construct: purchased KINOMEscan
# Description: (§1) We assessed the selectivity of members of this scaffold using the KINOMEscan methodology across a near comprehensive panel of 442 kinases [[18,27]].
# panel of 442 kinases [2] = biological target: T2, panel of 442 kinases (Homo sapiens, UniProt Q8NG66); conditions: Compound Concentration 10 µM
# T2 construct: purchased KINOMEscan
# T2 sequence (Q8NG66 1-645): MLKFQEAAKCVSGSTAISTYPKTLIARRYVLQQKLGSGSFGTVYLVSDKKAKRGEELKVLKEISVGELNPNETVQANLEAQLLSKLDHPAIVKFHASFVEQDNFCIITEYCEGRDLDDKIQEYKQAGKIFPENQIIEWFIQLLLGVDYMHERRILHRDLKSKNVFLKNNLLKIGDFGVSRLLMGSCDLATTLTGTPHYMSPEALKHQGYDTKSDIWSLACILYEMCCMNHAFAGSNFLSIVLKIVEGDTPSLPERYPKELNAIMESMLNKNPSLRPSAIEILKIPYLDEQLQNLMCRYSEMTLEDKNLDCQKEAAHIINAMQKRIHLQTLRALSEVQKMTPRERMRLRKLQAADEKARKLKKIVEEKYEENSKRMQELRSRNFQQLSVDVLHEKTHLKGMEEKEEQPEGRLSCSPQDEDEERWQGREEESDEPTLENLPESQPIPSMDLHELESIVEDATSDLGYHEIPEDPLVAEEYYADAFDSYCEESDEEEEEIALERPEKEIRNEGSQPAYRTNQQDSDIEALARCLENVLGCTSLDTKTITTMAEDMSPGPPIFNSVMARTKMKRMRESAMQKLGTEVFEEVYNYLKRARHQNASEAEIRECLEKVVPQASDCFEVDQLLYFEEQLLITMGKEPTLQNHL
# Description: as §1
# panel of 442 kinases [3] = biological target: T3, panel of 442 kinases (Homo sapiens, UniProt P30291); conditions: kinase WEE1; compound concentration 10 µM
# T3 construct: purchased KINOMEscan
# T3 sequence (P30291 whole entry): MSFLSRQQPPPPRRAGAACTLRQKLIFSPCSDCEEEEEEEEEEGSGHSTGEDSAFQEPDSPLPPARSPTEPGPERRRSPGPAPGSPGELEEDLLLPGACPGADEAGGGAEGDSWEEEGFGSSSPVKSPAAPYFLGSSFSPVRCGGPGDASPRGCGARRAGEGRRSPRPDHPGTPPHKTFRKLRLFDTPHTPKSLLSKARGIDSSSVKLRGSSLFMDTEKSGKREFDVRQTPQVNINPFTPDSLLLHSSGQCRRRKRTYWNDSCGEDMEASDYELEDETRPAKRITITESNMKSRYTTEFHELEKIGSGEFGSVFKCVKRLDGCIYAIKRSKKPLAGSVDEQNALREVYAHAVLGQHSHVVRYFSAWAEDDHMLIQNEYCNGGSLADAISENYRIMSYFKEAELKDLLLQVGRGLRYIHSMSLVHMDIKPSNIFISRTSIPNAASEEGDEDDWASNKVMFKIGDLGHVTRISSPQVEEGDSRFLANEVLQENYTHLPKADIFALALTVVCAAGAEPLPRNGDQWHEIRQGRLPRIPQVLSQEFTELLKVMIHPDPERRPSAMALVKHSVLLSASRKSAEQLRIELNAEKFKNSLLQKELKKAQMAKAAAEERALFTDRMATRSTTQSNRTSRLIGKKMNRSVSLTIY
# Description: as §1
SMILES,KINOMEscan: ABL1(Q252H)-nonphosphorylated (panel of 442 kinases [1]),KINOMEscan: ABL1(Q252H)-phosphorylated (panel of 442 kinases [1]),KINOMEscan: NEK11 (panel of 442 kinases [2]),"% Ctrl, WEE1 (panel of 442 kinases [3])"
COc1cc(C(=O)N2CCC(N3CCN(C)CC3)CC2)ccc1Nc1ncc2c(n1)N(C)c1ccccc1C(=O)N2C [15 (LRRK2-IN-1)],100,100,100,100 % Ctrl
COc1cc(C(=O)N2CCC(N3CCN(C)CC3)CC2)ccc1Nc1ncc2c(n1)N1CCc3cccc(c31)C(=O)N2C [Compound 24],–,–,–,82 % Ctrl
"COc1cc(C(=O)N2CCC(N3CCN(C)CC3)CC2)ccc1Nc1ncc2c(n1)N(C1CCCC1)c1ccccc1C(=O)N2C [Compound 25, 11-cyclopentyl-2-((2-methoxy-4-(4-(4-methylpiperazin-1-yl)piperidine-1-carbonyl)phenyl)amino)-5-methyl-5H-benzo[e]pyrimido[5,4-b][1,4]diazepin-6(11H)-one]",89,83,100,98 % Ctrl
CCOc1cc(C(=O)N2CCC(N3CCN(C)CC3)CC2)ccc1Nc1ncc2c(n1)N(C1CCCC1)c1ccccc1C(=O)N2C [Compound 26],100,100,100,100 % Ctrl
